Columns and labels:
[1] = Binding affinity towards D2-like dopamine receptor in caudate-putamen membranes of sprague-dawley rat brain by using [3H]spiperone as radioligand; type: cell membranes, Membrane
Rattus norvegicus [2] = organism: Rattus norvegicus; experiment: Ratio of binding affinity for D1-like receptor to that of dopamine D3 receptor
[3] = Binding affinity towards D1-like dopamine receptor in caudate-putamen membranes of sprague-dawley rat brain by using [3H]-SCH- 23390 as radioligand; type: cell membranes, Membrane
Rattus norvegicus [4] = organism: Rattus norvegicus; experiment: Ratio of binding affinity for D2-like receptor to that of dopamine D3 receptor
D(3) dopamine receptor = D(3) dopamine receptor (Rattus norvegicus, UniProt P19020)
Chain of D(3) dopamine receptor (P19020 whole entry): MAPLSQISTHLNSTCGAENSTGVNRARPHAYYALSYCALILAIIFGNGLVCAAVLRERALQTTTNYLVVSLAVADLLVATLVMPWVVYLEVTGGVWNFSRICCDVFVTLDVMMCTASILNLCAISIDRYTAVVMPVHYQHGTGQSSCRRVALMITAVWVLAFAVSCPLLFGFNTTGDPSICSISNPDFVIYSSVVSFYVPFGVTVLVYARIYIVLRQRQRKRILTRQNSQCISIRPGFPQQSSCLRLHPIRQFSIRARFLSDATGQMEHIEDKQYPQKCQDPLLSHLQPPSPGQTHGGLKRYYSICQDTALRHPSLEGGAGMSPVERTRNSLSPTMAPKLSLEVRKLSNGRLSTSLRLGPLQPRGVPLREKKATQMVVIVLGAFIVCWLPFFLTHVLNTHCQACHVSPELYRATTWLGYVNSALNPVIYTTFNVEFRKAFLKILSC
Description: Binding affinity towards dopamine D3 receptor in ventral striatal membranes of sprague-dawley rat brain by using [3H]-PD 128907 as radioligand

In the case of `CCCCCN1CCC2=C(CCc3ccccc32)C1`, the Ki [1] is reported as 0.046 µM, the Selectivity (Rattus norvegicus [2]) is reported as 28 and the Ki [3] is reported as 1.05 µM. It also gave a Selectivity (Rattus norvegicus [4]) of 1 and a Ki (D(3) dopamine receptor) of 0.038 µM.
For `CCN1CCC2=C(CCc3ccccc32)C1`, the Ki (D(3) dopamine receptor) was 0.183 µM.
`c1ccc(CCN2CCC3=C(CCc4ccccc43)C2)cc1` showed a Ki [1] of 3.29 µM, a Selectivity (Rattus norvegicus [2]) of 10 and a Ki [3] of 0.819 µM. For the same compound, the Selectivity (Rattus norvegicus [4]) was 39 and the Ki (D(3) dopamine receptor) was 0.084 µM.
Work on `c1ccc(CCCCN2CCC3=C(CCc4ccccc43)C2)cc1` yielded a Ki [1] of 0.059 µM, a Selectivity (Rattus norvegicus [2]) of 9 and a Ki [3] of 0.696 µM. The Selectivity (Rattus norvegicus [4]) was 1 and the Ki (D(3) dopamine receptor) was 0.074 µM.
Work on `CCCN1CCC2=C(CCc3ccccc32)C1` yielded a Ki [1] of 0.084 µM, a Selectivity (Rattus norvegicus [2]) of 18 and a Ki [3] of 1.12 µM. For the same compound, the Selectivity (Rattus norvegicus [4]) was 1 and the Ki (D(3) dopamine receptor) was 0.063 µM.
Work on `CCCCN1CCC2=C(CCc3ccccc32)C1` yielded a Ki [1] of 0.122 µM, a Selectivity (Rattus norvegicus [2]) of 62 and a Ki [3] of 1.57 µM. The Selectivity (Rattus norvegicus [4]) was 5 and the Ki (D(3) dopamine receptor) was 0.025 µM.
Work on `O=C(NCCCCN1CCC2=C(CCc3ccccc32)C1)c1ccc2ccccc2c1` yielded a Ki [1] of 0.811 µM, a Selectivity (Rattus norvegicus [2]) of 163 and a Ki [3] of 0.993 µM. It also gave a Selectivity (Rattus norvegicus [4]) of 133 and a Ki (D(3) dopamine receptor) of 0.0061 µM.
`COc1ccccc1N1CCN(CCCCNC(=O)c2ccc3ccccc3c2)CC1` [BP-897] showed a Ki [1] of 0.162 µM and a Ki [3] of 0.636 µM.
Work on `c1ccc(CCCN2CCC3=C(CCc4ccccc43)C2)cc1` yielded a Ki (D(3) dopamine receptor) of 0.103 µM.
